Source: article PMC6675120, “Potent and selective inhibitors for M32 metallocarboxypeptidases identified from high-throughput screening of anti-kinetoplastid chemical boxes” (PLoS Neglected Tropical Diseases, 2019)

What was measured:
[1] = system: T. brucei; design: method as in https://pubchem.ncbi.nlm.nih.gov/compound/91800813; conditions: ref https://pubchem.ncbi.nlm.nih.gov/compound/91800813; cited from earlier work
[2] = system: HepG2; design: method as in https://pubchem.ncbi.nlm.nih.gov/compound/91800813; conditions: ref https://pubchem.ncbi.nlm.nih.gov/compound/91800813, read-out: cytotoxicity IC50; cited from earlier work
[3] = system: L. donovani; design: method as in https://pubchem.ncbi.nlm.nih.gov/compound/91800813; conditions: ref https://pubchem.ncbi.nlm.nih.gov/compound/91800813; cited from earlier work
[4] = system: NIH 3T3; design: method as in https://pubchem.ncbi.nlm.nih.gov/compound/91800813; conditions: ref https://pubchem.ncbi.nlm.nih.gov/compound/91800813, read-out: cytotoxicity IC50; cited from earlier work
[5] = target: T. cruzi sterol 14-α demethylase (CYP51); design: method as in https://pubchem.ncbi.nlm.nih.gov/compound/91800813; conditions: ref https://pubchem.ncbi.nlm.nih.gov/compound/91800813; cited from earlier work
[6] = target: TbMCP-1 (Trypanosoma brucei, UniProt Q386R0); assay: Continuous fluorogenic (FRET) TbMCP-1 assay with Abz-RFFK(Dnp)-OH, primary and secondary screening; type: biochemical
TbMCP-1, sequence (Q386R0 entry or part of it): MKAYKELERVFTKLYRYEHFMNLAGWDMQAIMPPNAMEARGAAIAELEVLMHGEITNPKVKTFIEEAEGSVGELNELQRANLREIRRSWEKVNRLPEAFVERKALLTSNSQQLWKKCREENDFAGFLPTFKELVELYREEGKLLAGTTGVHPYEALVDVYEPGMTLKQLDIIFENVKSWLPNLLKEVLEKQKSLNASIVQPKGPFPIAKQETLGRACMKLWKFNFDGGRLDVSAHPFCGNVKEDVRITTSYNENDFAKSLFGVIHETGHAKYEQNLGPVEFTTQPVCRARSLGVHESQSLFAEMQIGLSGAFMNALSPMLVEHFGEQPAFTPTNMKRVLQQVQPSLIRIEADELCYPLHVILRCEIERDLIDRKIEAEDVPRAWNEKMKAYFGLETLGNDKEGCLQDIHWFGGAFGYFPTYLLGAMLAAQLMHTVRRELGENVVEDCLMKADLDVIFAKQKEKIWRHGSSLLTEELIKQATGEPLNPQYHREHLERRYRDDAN
Method: TcMCP-1 (MEROPS ID: M32.003) and TbMCP-1 were expressed as GST fusion proteins in E. coli BL21 (DE3) Codon Plus and purified as previously described.
TbMCP-1 and TcMCP-1 activities were assayed fluorometrically with Abz-RFFK(Dnp)-OH and Abz-LKFK(Dnp)-OH substrates, respectively, in 100 mM MOPS pH 7,2 containing 0,01% Triton X-100. Assays were performed in solid black 384-well plates (final reaction volume ~80 μL) and the hydrolysis of the K(Dnp)-OH group was monitored continuously at 30 °C with a Beckman Coulter DTX 880 Multimode Reader (Radnor, Pennsylvania, USA) using standard 320 nm excitation and 420 nm emission filter set.
In all cases, EDTA (final concentration 31,25 mM) was used as positive inhibition control.
Then, 40 μL of 100 mM MOPS, 0,01% Triton X-100 pH 7,2 containing TbMCP-1 (2,50 nM) or TcMCP-1 (0,34 nM) were added to each well, plates were homogenized (30 seg, orbital, medium intensity) and each well subjected to a single autofluorescence read (ex/em = 320/420 nm). Plates were incubated in darkness for 15 min at 30 °C and then 40 μL of Abz-RFFK(Dnp)-OH (4 μM) or Abz-LKFK(Dnp)-OH (0,8 μM) in assay buffer were added to each well to start the reaction. After homogenization (30 seg, orbital, medium intensity), the fluorescence of the Abz group (ortho-aminobenzoic acid) (ex/em = 320/420 nm) was acquired kinetically for each well (8 read cycles, one cycle every 300 seconds). Considering our previous experiences, the auto-fluorescent cut-off was arbitrarily set at 2x10^5 RFU to discard highly interfering compounds. All compounds were assayed in singlet (without replicates) due to the limited availability of stocks.
Raw screening measurements were used to determine the slope (dF/dt) of progression curves by linear regression for control and non-interfering compound wells. In the case of control-dependent hit selection criteria, percent inhibition percentage (%Inh) was calculated for each compound according to the following equation: Inh=100∙[1−(dF/dt^WELL−μ^C−)/(μ^C+−μ^C−)] (1) where dF/dt^WELL represents the slope of each compound well and μ^C+ and μ^C− the average of MCP (no-inhibition) and substrate (no-enzyme) controls, respectively.
To avoid any positional and/or association bias, we randomly defined the row position for each compound. One μL of compounds stock (10 mM in DMSO) and EDTA (31,25 mM) were added to the first well of column 1, followed by addition of 40 μL of 100 mM MOPS, 0,01% Triton X-100 pH 7,2 buffer. After addition of 20 μL of the same buffer to subsequent wells of the plate, 22 serial 2-fold dilutions were made horizontally. The last two positions of every row were used, alternatively, for C^+ and C^− controls to reduce any positional and/or association bias. Then, 20 μL of activity buffer containing TbMCP-1 or TcMCP-1 were added to each well, except for those corresponding to C^−; completed with 20 μL of activity buffer. After homogenization, 15 minutes of incubation at 30°C and autofluorescence measurement, the substrate (in activity buffer) was added to the previous mix. Data collection and processing were performed exactly as described above. Percentage of M32 MCPs residual activity was calculated for each condition according to the following equation: %Res.Act^MCP=100∙[(dF/dt^WELL−μ^C−)/(μ^C+−μ^C−)] (2) where dF/dt^WELL represents the slope of each compound well and μ^C+ and μ^C− the average of MCP (no-inhibition) and substrate (no-enzyme) controls, respectively.

N#Cc1ccc(S(=O)(=O)N2CCN(Cc3cccc(-c4ccncc4)c3)CC2)cc1 [TCMDC-143620]
activity on T. brucei [1]: moderate but measurable activity | IC50 [2]: > 100 µM | activity on L. donovani [3]: moderate but measurable activity | IC50 [4]: 13 µM | IC50 [5]: 0.079 µM | potency on TbMCP-1 lower than on TcMCP-1 ([6]; TbMCP-1 vs TcMCP-1): ~ 7 fold | TbMCP-1 Hill Slope ([6]; four-parameter Hill fit of dose-response curve): -1,461 | TbMCP-1 2º/1º ratio ([6]; secondary (31,5 µM) / primary (25 µM) inhibition): 2,14 | inhibition at 25 µM ([6]; single inhibitor concentration 25 µM, read-out: TbMCP-1 Primary screening Inhibition (%)): 45.2% | inhibition ([6]; single inhibitor concentration 31,5 µM): 96.6%
